Values of other authors, collected in patent publication US20040039052A1, “Urinary incontinence therapy” (priority 1997, published 2004).

Key:
[1] = system: vanilloid receptor-mediated release of tachykinins in the rat urinary bladder; details: rats with experimentally induced hypertrophy; cited from earlier work
bladder afferents = details: rats; intravesicular 10-100 μmol; cited from earlier work
[2] = system: patients with detrusor hyperreflexia (DH); details: intravesical instillation; cited from earlier work

Compound: COc1cc(CNC(=O)CCCC/C=C/C(C)C)ccc1O [CAP, capsaicin, reference compound]
- reducing symptoms in rats having an experimentally induced hypertrophy [1]: effective in reducing symptoms
- desensitization of bladder afferents (bladder afferents): long-lasting desensitization of bladder afferents
- period after treatment when symptoms deteriorate [2]: 2 to 4 days
- tolerability upon instillation [2]: intense burning and pain in the lower abdomen upon instillation
